Results from patent US11787780B2 (CORCEPT THERAPEUTICS INCORPORATED, priority 2020, dated 2023).

Target: glucocorticoid receptor (GR) recombinant ligand binding domain (LBD) (Homo sapiens (Human), UniProt P04150)
Test: GR binding fluorescence polarisation (FP) assay
Details: displacement of fluorescently tagged ligand
Protocol: Binding of test compounds to the glucocorticoid receptor (GR) is determined using a fluorescence polarisation (FP) assay utilising a recombinant ligand binding domain (LBD) of GR. The test compounds are assessed by their ability to displace a fluorescently tagged ligand and detection of the resulting decrease in fluorescence polarisation.

glucocorticoid receptor (GR) recombinant ligand binding domain (LBD), sequence (P04150 524-758): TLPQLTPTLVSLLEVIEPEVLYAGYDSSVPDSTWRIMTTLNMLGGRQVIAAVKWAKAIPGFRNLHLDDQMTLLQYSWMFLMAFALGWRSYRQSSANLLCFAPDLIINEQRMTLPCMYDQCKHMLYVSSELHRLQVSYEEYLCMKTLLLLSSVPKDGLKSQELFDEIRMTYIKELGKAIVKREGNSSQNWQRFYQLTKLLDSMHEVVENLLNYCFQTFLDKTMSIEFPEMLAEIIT

SMILES	IC50
CCCn1cc(S(=O)(=O)N2CCN(c3cc4cnn(-c5ccc(OC)nc5)c4cc3C)C[C@H]2C)cn1 [Example 77]	1040 nM
CC(C)Cn1cc(S(=O)(=O)N2CCN(c3ccc4c(cnn4-c4ccc(F)cc4)c3)C[C@H]2C)cn1 [Example 64]	151 nM
CS(=O)(=O)N1CC2CC(C1)N2c1ccc2c(cnn2-c2ccc(F)cc2)c1 [Example 48]	4050 nM
Cc1cc2c(cnn2-c2ccc(F)cc2)cc1N1CC[C@H](NS(C)(=O)=O)C1 [Example 108]	7 nM
Cc1cc2c(cnn2-c2ccc(F)cc2)cc1C1CCN(S(C)(=O)=O)CC1 [Example 136]	102 nM
C[C@@H]1CN(S(=O)(=O)C2CCCC2)CCN1c1ccc2c(cnn2-c2ccc(F)cc2)c1 [Example 35]	1810 nM
Cc1cc2c(cnn2-c2ccc(F)cc2)cc1N1CC[C@@H](NS(C)(=O)=O)C1 [Example 109]	48 nM
CCCn1cc(S(=O)(=O)N2CCN(c3cc4cnn(-c5ccc(OC)cc5)c4cc3C)C[C@H]2C)cn1 [Example 75]	325 nM
Cc1cc2c(cnn2-c2ccc(F)cc2)cc1N1CCN(S(C)(=O)=O)CC1=O [Example 7, 1-(1-(4-fluorophenyl)-6-methyl-1H-indazol-5-yl)-4-(methylsulfonyl)piperazin-2-one]	6110 nM
CC1(C)CN(c2ccc3c(cnn3-c3ccc(F)cc3)c2)CCN1S(C)(=O)=O [Example 45]	562 nM
Cc1nn(C2CCCC2)cc1S(=O)(=O)N1CCN(c2ccc3c(cnn3-c3ccc(F)cc3)c2)C[C@H]1C [Example 54]	142 nM
CCCn1cc(S(=O)(=O)N2CCN(c3cc4nnn(-c5ccc(F)cc5)c4cc3C)CC23CC3)cn1 [Example 74]	66 nM
Cc1cc2c(cnn2-c2ccc(F)cc2)cc1N1CCC2(CCCN2S(C)(=O)=O)CC1 [Example 88]	7230 nM
C[C@H]1CN(S(=O)(=O)c2cnn(C)c2)CCN1c1ccc2c(cnn2-c2ccc(F)cc2)c1 [Example 36]	3550 nM
Cc1cc2c(cnn2-c2ccc(F)cc2)cc1N1CCN(C(=O)Nc2ccccc2)C2(CC2)C1 [Example 102]	267 nM
COC(=O)C1CN(c2ccc3c(cnn3-c3ccc(F)cc3)c2)CCN1S(=O)(=O)c1cnn(CC2CC2)c1 (centres unmarked) [Example 52]	700 nM
CCCn1cc(S(=O)(=O)N2CCN(c3ccc4c(cnn4-c4ccc(F)cc4)n3)CC23CC3)cn1 [Example 72]	3740 nM
CCCn1cc(S(=O)(=O)N2CCN(c3ccc4c(cnn4-c4ccc(F)cc4)c3)C3(CC3)C2)cn1 [Example 3, 1-(4-fluorophenyl)-5-(7-((1-propyl-1H-pyrazol-4-yl)sulfonyl)-4,7-diazaspiro[2.5]octan-4-yl)-1H-indazole]	206 nM
C[C@@H]1CN(S(C)(=O)=O)[C@@H](C)CN1c1ccc2c(cnn2-c2ccc(F)cc2)c1 [Example 51]	360 nM
CS(=O)(=O)N1C[C@@H]2C[C@H]1CN2c1ccc2c(cnn2-c2ccc(F)cc2)c1 [Example 47]	1410 nM

SMILES	IC50
CCCn1cc(S(=O)(=O)N2CCC(C(=O)N3CCCC3)(c3cc4cnn(-c5ccc(F)cc5)c4cc3C)CC2)cn1 [Example 22, (4-(1-(4-fluorophenyl)-6-methyl-1H-indazol-5-yl)-1-((1-propyl-1H-pyrazol-4-yl)sulfonyl)piperidin-4-yl)(pyrrolidin-1-yl)methanone]	857 nM
CCCn1cc(S(=O)(=O)N2CC=C(c3cc4cnn(-c5ccc(F)cc5)c4cc3C)CC2)cn1 [Example 139]	218 nM
CS(=O)(=O)N[C@H]1CCN(c2ccc3c(cnn3-c3ccc(F)cc3)c2)C1 [Example 105]	320 nM
Cn1cc(S(=O)(=O)N2CCN(c3ccc4c(cnn4-c4ccc(F)cc4)c3)C[C@H]2Cc2ccccc2)cn1 [Example 41]	937 nM
CCCn1cc(S(=O)(=O)NC2CCN(c3cc4cnn(-c5ccc(F)cc5)c4cc3C)CC2)cn1 [Example 107]	3 nM
Cc1cc2c(cnn2-c2ccc(F)cc2)cc1N1CC[C@H](N(C)S(=O)(=O)c2cnn(C)c2)C1 [Example 114]	304 nM
Cc1cc2c(cnn2-c2ccc(F)cc2)cc1N1CCCC(N(C)S(C)(=O)=O)C1 (centres unmarked) [Example 126]	190 nM
CCCn1cc(S(=O)(=O)N2CCN(c3ccc4c(cnn4-c4ccc(F)cc4)c3)CC23CCC3)cn1 [Example 66]	429 nM
CCCn1cc(S(=O)(=O)N2C[C@H](C)N(c3ccc4c(cnn4-c4ccc(F)cc4)c3)C[C@H]2C)cn1 [Example 55]	21 nM
C[C@@H]1CN(c2ccc3c(cnn3-c3ccc(F)cc3)c2)CCN1S(=O)(=O)c1cnn(C)c1 [Example 37]	396 nM
CCCn1cc(S(=O)(=O)N2CCN(c3ccc4c(cnn4-c4ccc(F)cc4)c3C)C[C@H]2C)cn1 [Example 49]	8220 nM
CCCn1cc(S(=O)(=O)N2CCC(C(=O)OCC)(c3ccc4c(cnn4-c4ccc(F)cc4)c3)CC2)cn1 [Example 21, Ethyl 4-(1-(4-fluorophenyl)-1H-indazol-5-yl)-1-((1-propyl-1H-pyrazol-4-yl)sulfonyl)piperidine-4-carboxylate]	884 nM
CC(=O)N1CCN(c2ccc3c(cnn3-c3ccc(F)cc3)c2)C[C@H]1Cc1ccccc1 [Example 98]	749 nM
Cc1cc2c(cnn2-c2ccc(F)cc2)cc1N1CC[C@@H](NS(=O)(=O)c2cnn(C)c2)C1 [Example 110]	46 nM
CCCn1cc(S(=O)(=O)N2CC=C(c3cc4cnn(-c5ccc(F)cc5)c4cc3C)C[C@H]2C)cn1 [Example 11, (R)-1-(4-fluorophenyl)-6-methyl-5-(2-methyl-1-((1-propyl-1H-pyrazol-4-yl)sulfonyl)-1,2,3,6-tetrahydropyridin-4-yl)-1H-indazole]	258 nM
CCCn1cc(S(=O)(=O)N2CCN(c3cc4cnn(-c5ccc(F)cc5)c4cn3)CC23CC3)cn1 [Example 69]	1160 nM
CCCn1cc(S(=O)(=O)N2C3CCC2CN(c2cc4cnn(-c5ccc(F)cc5)c4cc2C)C3)cn1 [Example 83]	515 nM
Cc1cc2c(cnn2-c2ccc(F)cc2)cc1N1CC[C@H](N(C)S(C)(=O)=O)C1 [Example 112]	249 nM
CCCn1cc(S(=O)(=O)N2CCN(c3ccc4c(cnn4-c4ccc(F)cc4)c3)CC2(C)C)cn1 [Example 46]	1130 nM
Cn1cc(S(=O)(=O)C2CCN(c3ccc4c(cnn4-c4ccc(F)cc4)c3)CC2)cn1 [Example 33, 1-(4-fluorophenyl)-5-(4-((1-methyl-1H-pyrazol-4-yl)sulfonyl)piperidin-1-yl)-1H-indazole]	67 nM

SMILES	IC50
Cc1cc2c(cnn2-c2ccc(F)cc2)cc1N1CC[C@H](NS(=O)(=O)c2cnn(C)c2)C1 [Example 111]	3 nM
CCCn1cc(S(=O)(=O)N2CC[C@@H](c3ccc4c(cnn4-c4ccc(F)cc4)c3)C[C@H]2C)cn1 [Example 9, 1-(4-fluorophenyl)-5-((2R,4R)-2-methyl-1-((1-propyl-1H-pyrazol-4-yl)sulfonyl)piperidin-4-yl)-1H-indazole]	527 nM
CCCn1cc(S(=O)(=O)N2CCN(c3cnc4c(cnn4-c4ccc(F)cc4)c3)CC23CC3)cn1 [Example 71]	238 nM
CCCn1cc(S(=O)(=O)N(C)[C@H]2CCCN(c3cc4cnn(-c5ccc(F)cc5)c4cc3C)C2)cn1 [Example 125]	208 nM
Cc1cc2c(cnn2-c2ccc(F)cc2)cc1N1CC[C@@H](N(C)S(C)(=O)=O)C1 [Example 113]	52 nM
CCCn1cc(S(=O)(=O)N[C@H]2CCN(c3cc4cnn(-c5ccc(F)cc5)c4cc3C)C2)cn1 [Example 4, (S)—N-(1-(1-(4-fluorophenyl)-6-methyl-1H-indazol-5-yl)pyrrolidin-3-yl)-1-propyl-1H-pyrazole-4-sulfonamide]	2 nM
CCCn1cc(S(=O)(=O)N2CCN(c3cc4cnn(-c5ccc(F)c(F)c5)c4cc3C)C[C@H]2C)cn1 [Example 76]	83 nM
CS(=O)(=O)N1CCC(c2ccc3c(cnn3-c3ccc(F)cc3)c2)CC1 [Example 134]	3380 nM
Cc1cc2c(cnn2-c2ccc(F)cc2)cc1N1CCC2(CCN(S(C)(=O)=O)CC2)C1 [Example 95]	612 nM
C[C@H]1CN(c2ccc3c(cnn3-c3ccc(F)cc3)c2)CCN1S(=O)(=O)c1cnn(C)c1 [Example 38]	1950 nM
C[C@@H]1CN(C(=O)c2ccccc2)CCN1c1ccc2c(cnn2-c2ccc(F)cc2)c1 [Example 2, (R)-(4-(1-(4-fluorophenyl)-1H-indazol-5-yl)-3-methylpiperazin-1-yl)(phenyl)methanone]	1940 nM
C[C@@H]1CN(c2ccc3c(cnn3-c3ccc(F)cc3)c2)CCN1S(=O)(=O)c1cnn(C2CCOCC2)c1 [Example 53]	244 nM
O=S(=O)(c1cnn(CC2CC2)c1)N1CCN(c2ccc3c(cnn3-c3ccc(F)cc3)c2)C[C@H]1CO [Example 14, (S)-(1-((1-(cyclopropylmethyl)-1H-pyrazol-4-yl)sulfonyl)-4-(1-(4-fluorophenyl)-1H-indazol-5-yl)piperazin-2-yl)methanol]	357 nM
CCCn1cc(S(=O)(=O)N(C)C2CCN(c3cc4cnn(-c5ccc(F)cc5)c4cc3C)CC2)cn1 [Example 117]	57 nM
CCCn1cc(S(=O)(=O)N2CC[C@@H](c3cc4cnn(-c5ccc(F)cc5)c4cc3C)C[C@H]2C)cn1 [Example 12, 1-(4-fluorophenyl)-6-methyl-5-((2R,4R)-2-methyl-1-((1-propyl-1H-pyrazol-4-yl)sulfonyl)piperidin-4-yl)-1H-indazole]	236 nM
Cc1cc2c(cnn2-c2ccc(F)cc2)cc1C1(COCc2ccccc2)CCN(S(=O)(=O)c2cnn(C)c2)C1 (centres unmarked) [Example 341, 5-(3-((benzyloxy)methyl)-1-((1-methyl-1H-pyrazol-4-yl)sulfonyl)pyrrolidin-3-yl)-1-(4-fluorophenyl)-6-methyl-1H-indazole]	390 nM
CC(=O)N1CCN(c2ccc3c(cnn3-c3ccc(F)cc3)c2)[C@H](C)C1 [Example 97]	1810 nM
CC(C)C[C@@H]1CN(c2ccc3c(cnn3-c3ccc(F)cc3)c2)CCN1S(=O)(=O)c1cnn(C)c1 [Example 42]	2320 nM
Cn1cc(S(=O)(=O)N2CCN(c3ccc4c(cnn4-c4ccc(F)cc4)c3)[C@H](Cc3ccccc3)C2)cn1 [Example 34]	1100 nM
